Measurements reported in patent US20250327028A1, “ENGINEERED PLATELETS AS TARGETED PROTEIN DEGRADERS” (Wisconsin Alumni Research Foundation, priority 2024, published 2025).

Legend:
4T1 cells = assay: In-gel fluorescence detection of NA-647 internalization in 4T1 cells cotreated with HAC-B; type: cell-based, murine; settings: 4T1 cells cotreated with HAC-B (all concentrations) and NA-647, 2 h
Procedure: In-gel fluorescence detection: In-gel fluorescence was mainly used to investigate the internalization of NeutrAvidin™_647 in HAC-B-treated cancer cells.
Sample preparation: 4T1 or WT MDA-MB-231 cells were seeded in 6-well culture plates with a density of 5×10^4 cells in each well and cultured for 24 h. If HAI pretreatment was performed, the cells were incubated in the HAI-containing blank medium at different concentrations for 2 h and washed with PBS twice before the following treatments. Then, the cells were treated with free HAC-B or the combinations of various ligands at the indicated concentrations for the predetermined time points. Next, the drug-containing medium was removed, and PBS was used to wash the cells twice, followed by incubating the cells in the blank medium containing NeutrAvidin™ DyLight™ 650 (NA-647, Invitrogen/84607) at 0.5 μM for 1 h. […]
In-gel fluorescence imaging: After 30-min lysis, the lysates were centrifuged at 10,000 g for 10 minutes at 4° C., and the corresponding supernatants were collected, followed by quantification of the total proteins in the supernatant through the BCA assay. […] After the proteins were separated, the gels were subjected to fluorescence imaging with the ChemiDoc™ MP imaging system (Bio-Rad).

BRD4 [1] = molecular target: T1, BRD4 (Homo sapiens, UniProt O60885); assay: Immunoblot analysis of BRD4 degradation in WT MDA-MB-231 cells after free HAC treatment; type: cell-based
T1 construct: endogenous in cells; host or cells: WT MDA-MB-231 (ATCC)
Source text: (§1) Immunoblot analysis: Immunoblot analysis was used to evaluate the expression of BRD4, HSP90, HSP90a, and PD-L1 in 4T1, WT MDA-MB-231, HSP90α-KO MDA-MB-231 or PEA-10 cells after various treatments and also served as the detection method for IP or co-IP experiments. The procedures for preparing IP or co-IP samples were indicated in the relevant experimental parts.
Sample preparation for various cancer cells after free HAC treatment: Various cells, including 4T1, WT MDA-MB-231, HSP90α-KO MDA-MB-231, or PEA-10 cells, were seeded in 6-well culture plates with a density of 5×10^4 cells in each well and cultured for 24 h. Then, if HAI pretreatment was performed, the cells were incubated in the HAI-containing blank medium at different concentrations for 2 h and washed with PBS twice before the following treatments. The medium in the corresponding wells was replaced with 1 mL of blank medium containing the DMSO vehicle, HACs, or the combinations of various free ligands at the predetermined concentrations. After incubation for the indicated time points, cells were washed with PBS and lysed on ice with the relevant lysis buffer containing PMSF (1 mM) and the phosphatase inhibitor cocktail for 30 min. As for the conditioned medium (CM), the culturing complete medium of the corresponding cancer cells in each well was collected after 24-h incubation and subjected to centrifugation at 2000 rpm for 5 min to obtain the supernatant. The filtrate of the supernatants was collected following filtration over a 0.45 μm filter, serving as the CM. […]
(§2) General procedures for immunoblot analysis: After a 30-min lysis, the lysates were centrifuged at 10,000 g for 10 minutes at 4° C., and the corresponding supernatants were collected, followed by quantification of the total proteins in the supernatant through the BCA assay. […] Finally, the bands were treated with electrochemiluminescence (ECL) western blot substrate, detected by the iBright™ imaging system and quantified with ImageJ software. […]

BRD4 [2] = molecular target: T1, BRD4; assay: Immunoblot analysis of BRD4 degradation in HSP90α-KO MDA-MB-231 cells; type: cell-based; settings: 24 h
Source text: as §1
Sample preparation for various cancer cells after free HAC treatment: Various cells, including 4T1, WT MDA-MB-231, HSP90α-KO MDA-MB-231, or PEA-10 cells, were seeded in 6-well culture plates with a density of 5×10^4 cells in each well and cultured for 24 h. Then, if HAI pretreatment was performed, the cells were incubated in the HAI-containing blank medium at different concentrations for 2 h and washed with PBS twice before the following treatments. […]
as §2

shape of concentration response of BRD4 degradation (BRD4 [1]; at relatively lower concentrations, reversed at 20 μM) | time dependence of BRD4 downregulation (BRD4 [1]; at the two effective concentrations) | Compound | internalization of NA-647 on cotreatment (4T1 cells) | remaining BRD4 degradation potency (BRD4 [2]) | effect of HSP90α deficiency on BRD4 degradation efficacy (BRD4 [2]; lower and higher concentration ranges)
 |  | N#CCN(C(=O)CCCC[C@@H]1SC[C@@H]2NC(=O)N[C@@H]21)S(=O)(=O)c1ccc(C(=O)NCCCn2c(Sc3cc4c(cc3I)OCO4)nc3c(N)ncnc32)cc1 [HAC-B, N-(3-(6-amino-8-((6-iodobenzo[d][1,3]dioxol-5-yl)thio)-9H-purin-9-yl)propyl)-4-(N-(cyanomethyl)-N-(5-((3aS,4S,6aR)-2-oxohexahydro-1H-thieno[3,4-d]imidazol-4-yl)pentanoyl)sulfamoyl)benzamide] | failed to internalize NA-647 in a large quantity within 2 h |  | 
hook effect | in a time-dependent manner | Cc1sc2c(c1C)C(c1ccc(Cl)cc1)=N[C@@H](CC(=O)NCc1cn(CCCC(=O)N(CC#N)S(=O)(=O)c3ccc(C(=O)NCCCn4c(Sc5cc6c(cc5I)OCO6)nc5c(N)ncnc54)cc3)nn1)c1nnc(C)n1-2 [iHAC, (S)—N-(3-(6-amino-8-((6-iodobenzo[d][1,3]dioxol-5-yl)thio)-9H-purin-9-yl)propyl)-4-(N-(4-(4-((2-(4-(4-chlorophenyl)-2,3,9-trimethyl-6H-thieno[3,2-f][1,2,4]triazolo[4,3-a][1,4]diazepin-6-yl)acetamido)methyl)-1H-1,2,3-triazol-1-yl)butanoyl)-N-(cyanomethyl)sulfamoyl)benzamide] |  | partially maintains the degradation potency | substantially compromised the BRD4 degradation efficacy
